One experiment concerns the target T1, PDK1 kinase (Homo sapiens, UniProt O15530).
T1 sequence (O15530 1-556): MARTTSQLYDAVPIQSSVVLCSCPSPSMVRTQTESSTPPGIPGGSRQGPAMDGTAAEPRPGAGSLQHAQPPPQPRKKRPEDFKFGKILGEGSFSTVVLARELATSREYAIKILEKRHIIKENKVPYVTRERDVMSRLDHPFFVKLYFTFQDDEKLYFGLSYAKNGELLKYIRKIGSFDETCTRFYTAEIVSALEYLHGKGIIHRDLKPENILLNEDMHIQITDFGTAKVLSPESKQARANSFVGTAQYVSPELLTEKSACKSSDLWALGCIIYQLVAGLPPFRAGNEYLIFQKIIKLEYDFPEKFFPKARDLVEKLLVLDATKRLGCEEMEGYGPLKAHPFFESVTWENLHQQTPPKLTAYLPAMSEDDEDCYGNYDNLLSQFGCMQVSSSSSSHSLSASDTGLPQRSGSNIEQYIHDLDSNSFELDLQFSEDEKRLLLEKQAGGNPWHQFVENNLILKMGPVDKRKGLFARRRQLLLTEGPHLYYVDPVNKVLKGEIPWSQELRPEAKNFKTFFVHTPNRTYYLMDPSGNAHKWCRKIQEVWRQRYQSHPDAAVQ
The experiment in a line: PDK1 Kinase Alpha Screen Assay. The conditions noted are these: PDK1 Kinase Alpha Screen Assay; read-out: PDK1 IC50. The experiment is classed as biochemical. In a few lines:
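Biotinylated PDK1-4 peptide (50 nM) phosphorylated by PDK1 with 10 uM ATP in pH 7.5 Tris/MgCl2/DTT buffer, 2.5% DMSO, for 3-18 hours. EDTA stop, then AlphaScreen detection with phospho-(Ser/Thr) PKA substrate antibody and protein A/streptavidin beads after overnight room-temperature development.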

A further experiment concerns PC3MM cells. The experiment in a line: Cell Proliferation Assay (Cell Titer Glo), PC3MM. Conditions: Cell Proliferation Assay, read-out: CPEC50 PC3MM. The experiment is classed as cell-based. On the procedure:
IV. Cell Proliferation Assay Protocol:
A2780, PC-3, or PC3MM cells were seeded at 1000 cells/well in 100 μL/well (10.000 cells/mL) growth media in 96-well plates. Cells were allowed to adhere to the bottom of plates for 3-5 hours in a 37° C. 5% CO2 incubator. Compounds were dissolved in DMSO and then transferred to the cell plates. The cells were incubated with the compounds for 3 days in a 37° C. 5% CO2 incubator. The growth medium containing the compounds was then removed from the cells and fresh medium was added, followed by 100 μL of Cell Titer Glo assay reagent (Promega). This mixture was shaken for 1 minute and then incubated without shaking for 10 minutes. Activity determinations for the compounds were made by detection on a Trilux Instrument.
In general terms: In ATP-based viability assays light output follows the ATP content of the culture.

In patent publication US7932262B2 (Novartis AG, priority 2006, dated 2011) one finds IC50 and EC50 data, which are given here for 25 compounds.

Where two headings read alike, the source gives them in different places.

As a reminder, the IC50 is the concentration that inhibits the measured activity by half.

With `CN1CCC(Oc2ccc3cnc(Nc4cc(C(N)=O)cc(-c5cnn(C)c5)c4)nc3c2)CC1` [Compound 660, 3-(1-methyl-1H-pyrazol-4-yl)-5-(7-(1-methylpiperidin-4-yloxy)quinazolin-2-ylamino)benzamide], the half-maximal inhibitory concentration (IC50) on PDK1 kinase was under 5 µM. For the same compound, in the experiment on PC3MM cells (PC3MM), the EC50 is under 5 µM.

As for `COC(=O)Nc1cc(Nc2ncc3cc(-c4cn[nH]c4)c(OC4CCNCC4)cc3n2)cc(-c2cn[nH]c2)c1` [Compound 661, methyl 3-(7-(piperidin-4-yloxy)-6-(1H-pyrazol-4-yl)quinazolin-2-ylamino)-5-(1H-pyrazol-4-yl)phenylcarbamate], the IC50 on PDK1 kinase is under 5 µM. Further, in the experiment on PC3MM cells (PC3MM), the EC50 is under 5 µM.

On to `COC(=O)Nc1cc(Nc2ncc3cc(-c4nccs4)c(OC4CCNCC4)cc3n2)cc(-c2cn[nH]c2)c1` [Compound 662, methyl 3-(7-(piperidin-4-yloxy)-6-(thiazol-2-yl)quinazolin-2-ylamino)-5-(1H-pyrazol-4-yl)phenylcarbamate], for which the IC50 on PDK1 kinase is under 5 µM. Further, the EC50 in the experiment with PC3MM cells (PC3MM) is under 5 µM.

On to `NC(=O)c1cc(Nc2ncc3cc(-c4cn[nH]c4)cc(OC4CCNCC4)c3n2)cc(N2CCOCC2)c1` [Compound 663, 3-morpholino-5-(8-(piperidin-4-yloxy)-6-(1H-pyrazol-4-yl)quinazolin-2-ylamino)benzamide], for which the IC50 on PDK1 kinase was under 5 µM. In addition, the EC50 in the experiment with PC3MM cells (PC3MM) fell in the range of 5 to 10 µM.

Take `O=C(c1cc(Nc2ncc3cc(-c4cn[nH]c4)cc(OC4CCNCC4)c3n2)cc(N2CCOCC2)c1)N1CCOCC1` [Compound 664, morpholino(3-morpholino-5-(8-(piperidin-4-yloxy)-6-(1H-pyrazol-4-yl)quinazolin-2-ylamino)phenyl)methanone]: the IC50 on PDK1 kinase was under 5 µM. Besides, the EC50 with PC3MM cells (PC3MM) was 5 to 10 µM.

Regarding `Cn1cc(-c2cc(Nc3ncc4cc(-c5cn[nH]c5)cc(OC5CCNCC5)c4n3)cc(C(N)=O)c2)cn1` [Compound 665, 3-(1-methyl-1H-pyrazol-4-yl)-5-(8-(piperidin-4-yloxy)-6-(1H-pyrazol-4-yl)quinazolin-2-ylamino)benzamide], the IC50 at PDK1 kinase was under 5 µM. For the same compound, the EC50 with PC3MM cells (PC3MM) was 5 to 10 µM.

In the case of `C#Cc1cc(OC2CCNCC2)c2nc(Nc3cc(C(N)=O)cc(N4CCOCC4)c3)ncc2c1` [Compound 666, 3-(6-ethynyl-8-(piperidin-4-yloxy)quinazolin-2-ylamino)-5-morpholinobenzamide], at PDK1 kinase, the IC50 is under 5 µM. Besides, in the experiment on PC3MM cells (PC3MM), the EC50 was in the range of 5 to 10 µM.

`C#Cc1cc(OC2CCNCC2)c2nc(Nc3cc(C(=O)N4CCOCC4)cc(N4CCOCC4)c3)ncc2c1` [Compound 667, (3-(6-ethynyl-8-(piperidin-4-yloxy)quinazolin-2-ylamino)-5-morpholinophenyl)(morpholino) methanone]: the half-maximal inhibitory concentration (IC50) at PDK1 kinase is under 5 µM. Further, the EC50 with PC3MM cells (PC3MM) is under 5 µM.

On to `C#Cc1cc(OC2CCNCC2)c2nc(Nc3cc(C(N)=O)cc(-c4cnn(C)c4)c3)ncc2c1` [Compound 668, 3-(6-ethynyl-8-(piperidin-4-yloxy)quinazolin-2-ylamino)-5-(1-methyl-1H-pyrazol-4-yl)benzamide], for which the IC50 on PDK1 kinase was under 5 µM. In addition, in the experiment with PC3MM cells (PC3MM), the EC50 is under 5 µM.

Turning to `NC(=O)c1cc(Nc2ncc3cc(Br)cc(OC4CCNCC4)c3n2)cc(N2CCOCC2)c1` [Compound 669, 3-(6-bromo-8-(piperidin-4-yloxy)quinazolin-2-ylamino)-5-morpholinobenzamide], the IC50 on PDK1 kinase is under 5 µM. In addition, the EC50 in the experiment on PC3MM cells (PC3MM) lay in the range of 5 to 10 µM.

`O=C(c1cc(Nc2ncc3cc(Br)cc(OC4CCNCC4)c3n2)cc(N2CCOCC2)c1)N1CCOCC1` [Compound 670, (3-(6-bromo-8-(piperidin-4-yloxy)quinazolin-2-ylamino)-5-morpholinophenyl)(morpholino) methanone]: the IC50 on PDK1 kinase was under 5 µM. Further, the EC50 with PC3MM cells (PC3MM) is under 5 µM.

Regarding `Cn1cc(-c2cc(Nc3ncc4cc(Br)cc(OC5CCNCC5)c4n3)cc(C(N)=O)c2)cn1` [Compound 671, 3-(6-bromo-8-(piperidin-4-yloxy)quinazolin-2-ylamino)-5-(1-methyl-1H-pyrazol-4-yl)benzamide], at PDK1 kinase, the IC50 was under 5 µM. Further, the EC50 with PC3MM cells (PC3MM) was under 5 µM.

With `NC(=O)c1cc(Nc2ncc3cc(-c4nccs4)cc(OC4CCNCC4)c3n2)cc(N2CCOCC2)c1` [Compound 672, 3-morpholino-5-(8-(piperidin-4-yloxy)-6-(thiazol-2-yl)quinazolin-2-ylamino)benzamide], at PDK1 kinase, the IC50 is under 5 µM. In addition, the EC50 with PC3MM cells (PC3MM) was in the range of 5 to 10 µM.

As for `Cn1cc(-c2cc(Nc3ncc4cc(-c5nccs5)cc(OC5CCNCC5)c4n3)cc(C(N)=O)c2)cn1` [Compound 673, 3-(1-methyl-1H-pyrazol-4-yl)-5-(8-(piperidin-4-yloxy)-6-(thiazol-2-yl)quinazolin-2-ylamino)benzamide], the IC50 on PDK1 kinase was under 5 µM. Moreover, the EC50 with PC3MM cells (PC3MM) is 5 to 10 µM.

As for `NC(=O)c1cc(Nc2ncc3cc(-c4cn[nH]c4)c(OC4CCNCC4)cc3n2)cc(N2CCOCC2)c1` [Compound 674, 3-morpholino-5-(7-(piperidin-4-yloxy)-6-(1H-pyrazol-4-yl)quinazolin-2-ylamino)benzamide], the IC50 at PDK1 kinase was under 5 µM. Also, the EC50 in the experiment with PC3MM cells (PC3MM) fell in the range of 5 to 10 µM.

In the case of `NC(=O)c1cc(Nc2ncc3cc(-c4nccs4)c(OC4CCNCC4)cc3n2)cc(N2CCOCC2)c1` [Compound 675, 3-morpholino-5-(7-(piperidin-4-yloxy)-6-(thiazol-2-yl)quinazolin-2-ylamino)benzamide], the IC50 on PDK1 kinase was under 5 µM. In addition, the EC50 in the experiment on PC3MM cells (PC3MM) fell in the range of 5 to 10 µM.

Turning to `COC(=O)Nc1cc(Nc2ncc3cc(-c4cn[nH]c4)c(OC4CCN(C)CC4)cc3n2)cc(-c2cn[nH]c2)c1` [Compound 676, methyl 3-(7-(1-methylpiperidin-4-yloxy)-6-(1H-pyrazol-4-yl)quinazolin-2-ylamino)-5-(1H-pyrazol-4-yl)phenylcarbamate], at PDK1 kinase, the IC50 was under 5 µM. For the same compound, the EC50 in the experiment on PC3MM cells (PC3MM) is under 5 µM.

On to `CN1CCC(Oc2cc3nc(Nc4cc(C(N)=O)cc(N5CCOCC5)c4)ncc3cc2-c2cn[nH]c2)CC1` [Compound 677, 3-(7-(1-methylpiperidin-4-yloxy)-6-(1H-pyrazol-4-yl)quinazolin-2-ylamino)-5-morpholinobenzamide], for which the half-inhibitory concentration (IC50) at PDK1 kinase is under 5 µM. In addition, the EC50 in the experiment on PC3MM cells (PC3MM) lay within 5 to 10 µM.

Take `CN1CCC(Oc2cc3nc(Nc4cc(C(N)=O)cc(N5CCOCC5)c4)ncc3cc2-c2nccs2)CC1` [Compound 678, 3-(7-(1-methylpiperidin-4-yloxy)-6-(thiazol-2-yl)quinazolin-2-ylamino)-5-morpholinobenzamide]: at PDK1 kinase, the IC50 was under 5 µM. Further, the EC50 with PC3MM cells (PC3MM) is under 5 µM.

For `C#Cc1cc2cnc(Nc3cc(C(N)=O)cc(N4CCOCC4)c3)nc2cc1OC1CCNCC1` [Compound 679, 3-(6-ethynyl-7-(piperidin-4-yloxy)quinazolin-2-ylamino)-5-morpholinobenzamide], the IC50 on PDK1 kinase was under 5 µM. Besides, the EC50 with PC3MM cells (PC3MM) fell in the range of 5 to 10 µM.

Consider `NC(=O)c1cc(Nc2ncc3cc(-c4cnoc4)c(OC4CCNCC4)cc3n2)cc(N2CCOCC2)c1` [Compound 680, 3-(6-(isoxazol-4-yl)-7-(piperidin-4-yloxy)quinazolin-2-ylamino)-5-morpholinobenzamide], for which the IC50 on PDK1 kinase is under 5 µM. Further, in the experiment with PC3MM cells (PC3MM), the EC50 fell in the range of 5 to 10 µM.

Turning to `CN1CCC(Oc2cc3nc(Nc4ccc5nc(C(F)(F)F)[nH]c5c4)ncc3cc2-c2nccs2)CC1` [Compound 681, 7-(1-methylpiperidin-4-yloxy)-6-(thiazol-2-yl)-N-(2-(trifluoromethyl)-1H-benzo[d]imidazol-6-yl)quinazolin-2-amine], on PDK1 kinase, the IC50 was under 5 µM. In addition, the EC50 in the experiment with PC3MM cells (PC3MM) lay in the range of 5 to 10 µM.

With `COc1cc(Nc2ncc3cc(-c4nccs4)c(OC4CCNCC4)cc3n2)cc(-n2nnnc2C)c1` [Compound 682, N-(3-methoxy-5 (5-methyl-1H-tetrazol-1-yl)phenyl)-7-(piperidin-4-yloxy)-6-(thiazol-2-yl)quinazolin-2-amine], the IC50 at PDK1 kinase is under 5 µM. Further, the EC50 in the experiment with PC3MM cells (PC3MM) was under 5 µM.

Take `CC(=O)N1CCC(Oc2cc3nc(Nc4ccc(N5CCOCC5)cc4)ncc3cc2-c2nccs2)CC1` [Compound 690, 1-(4-(2-(4-morpholinophenylamino)-6-(thiazol-2-yl)quinazolin-7-yloxy)piperidin-1-yl)ethanone]: on PDK1 kinase, the IC50 is under 5 µM. Also, the EC50 in the experiment on PC3MM cells (PC3MM) is under 5 µM.

In the case of `COc1c(-c2cnn(CC(C)C)c2)ccc2cnc(Nc3cc(CN4CCOCC4)cc(NC(C)=O)c3)nc12` [Compound 715, N-(3-(7-(1-isobutyl-1H-pyrazol-4-yl)-8-methoxyquinazolin-2-ylamino)-5-(morpholinomethyl)phenyl)acetamide], the IC50 on PDK1 kinase is under 5 µM. For the same compound, in the experiment with PC3MM cells (PC3MM cells), the EC50 was under 5 µM.
